According to ChEMBL document CHEMBL1629609, “Phenotypic and enzymatic comparative analysis of the novel KPC variant KPC-5 and its evolutionary variants, KPC-2 and KPC-4” (Antimicrob Agents Chemother, 2009):
Values after ≈ are worked out from the molar mass of the structure shown.

Key:
[1] = test system: Escherichia coli; assay: Antibacterial activity against Escherichia coli TOP10 harboring beta-lactamase KPC-5 by agar dilution method; assay type: functional
[2] = test system: Escherichia coli; assay: Antibacterial activity against Escherichia coli TOP10 by agar dilution method; assay type: functional
[3] = test system: Escherichia coli; assay: Metabolic stability in Escherichia coli TOP10 harboring beta-lactamase KPC-5 assessed as hydrolysis rate per mg of extracts at 100 uM after 5 mins by spectrophotometric analysis; assay type: ADME, organism-based; details: in vivo
[4] = test system: Escherichia coli; assay: Antibacterial activity against Escherichia coli TOP10 harboring beta-lactamase KPC-2 by agar dilution method in presence of clavulanic acid; assay type: functional
[5] = test system: Escherichia coli; assay: Antibacterial activity against Escherichia coli TOP10 harboring beta-lactamase KPC-2 by agar dilution method; assay type: functional
[6] = test system: Escherichia coli; assay: Antibacterial activity against Escherichia coli TOP10 by agar dilution method in presence of clavulanic acid
[7] = test system: Pseudomonas aeruginosa; assay: Antibacterial activity against Pseudomonas aeruginosa PR280 harboring beta-lactamase KPC-5 by agar dilution method; assay type: functional
[8] = test system: Escherichia coli; assay: Antibacterial activity against Escherichia coli TOP10 harboring beta-lactamase KPC-4 by agar dilution method; assay type: functional
[9] = test system: Enterobacter cancerogenus; assay: Antibacterial activity against Enterobacter cancerogenus E624 harboring beta-lactamase KPC-4 by agar dilution method; assay type: functional
[10] = test system: Escherichia coli; assay: Antibacterial activity against Escherichia coli TOP10 harboring beta-lactamase KPC-5 by agar dilution method in presence of clavulanic acid
[11] = test system: Escherichia coli; assay: Antibacterial activity against Escherichia coli TOP10 harboring beta-lactamase KPC-4 by agar dilution method in presence of clavulanic acid; assay type: functional
[12] = test system: Pseudomonas aeruginosa; assay: Antibacterial activity against Pseudomonas aeruginosa PR100 harboring beta-lactamase KPC-2 by agar dilution method; assay type: functional
[13] = test system: Escherichia coli; assay: Metabolic stability in Escherichia coli TOP10 harboring beta-lactamase KPC-2 assessed as hydrolysis rate per mg of extracts at 100 uM after 5 mins by spectrophotometric analysis; assay type: ADME, organism-based; details: in vivo
[14] = test system: Escherichia coli; assay: Metabolic stability in Escherichia coli TOP10 harboring beta-lactamase KPC-4 assessed as hydrolysis rate per mg of extracts at 100 uM after 5 mins by spectrophotometric analysis; assay type: ADME, organism-based; details: in vivo
[15] = test system: Escherichia coli; assay: Ratio of MIC for Escherichia coli TOP10 harboring beta-lactamase KPC-2 to MIC for Escherichia coli TOP10 harboring beta-lactamase KPC-4; assay type: functional
[16] = test system: Escherichia coli; assay: Ratio of MIC for Escherichia coli TOP10 harboring beta-lactamase KPC-2 to MIC for Escherichia coli TOP10 harboring beta-lactamase KPC-5; assay type: functional
[17] = test system: Escherichia coli; assay: Metabolic stability in Escherichia coli TOP10 harboring beta-lactamase KPC-2 assessed as hydrolysis rate per mg of extracts at 50 uM after 5 mins by spectrophotometric analysis; assay type: ADME, organism-based; details: in vivo
[18] = test system: Escherichia coli; assay: Metabolic stability in Escherichia coli TOP10 harboring beta-lactamase KPC-5 assessed as hydrolysis rate per mg of extracts at 50 uM after 5 mins by spectrophotometric analysis; assay type: ADME, organism-based; details: in vivo
[19] = test system: Escherichia coli; assay: Metabolic stability in Escherichia coli TOP10 harboring beta-lactamase KPC-4 assessed as hydrolysis rate per mg of extracts at 50 uM after 5 mins by spectrophotometric analysis; assay type: ADME, organism-based; details: in vivo
[20] = test system: Escherichia coli; assay: Metabolic stability in Escherichia coli TOP10 harboring beta-lactamase KPC-4 assessed as hydrolysis rate per mg of extracts at 100 uM after 5 mins by spectrophotometric analysis in presence of clavulanic acid; assay type: ADME, organism-based; details: in vivo
[21] = test system: Escherichia coli; assay: Metabolic stability in Escherichia coli TOP10 harboring beta-lactamase KPC-2 assessed as hydrolysis rate per mg of extracts at 100 uM after 5 mins by spectrophotometric analysis in presence of clavulanic acid; assay type: ADME, organism-based; details: in vivo
[22] = test system: Escherichia coli; assay: Metabolic stability in Escherichia coli TOP10 harboring beta-lactamase KPC-5 assessed as hydrolysis rate per mg of extracts at 100 uM after 5 mins by spectrophotometric analysis in presence of clavulanic acid; assay type: ADME, organism-based; details: in vivo
[23] = test system: Escherichia coli; assay: Antibacterial activity against Escherichia coli TOP10 by agar dilution method in presence of Tazobactam; assay type: functional
[24] = test system: Pseudomonas aeruginosa; assay: Antibacterial activity against Pseudomonas aeruginosa PR100 harboring beta-lactamase KPC-2 by agar dilution method in presence of Tazobactam; assay type: functional
[25] = test system: Escherichia coli; assay: Antibacterial activity against Escherichia coli TOP10 harboring beta-lactamase KPC-4 by agar dilution method in presence of Tazobactam; assay type: functional
[26] = test system: Escherichia coli; assay: Antibacterial activity against Escherichia coli TOP10 harboring beta-lactamase KPC-2 by agar dilution method in presence of Tazobactam; assay type: functional
[27] = test system: Enterobacter cancerogenus; assay: Antibacterial activity against Enterobacter cancerogenus E624 harboring beta-lactamase KPC-4 by agar dilution method in presence of Tazobactam; assay type: functional
[28] = test system: Pseudomonas aeruginosa; assay: Antibacterial activity against Pseudomonas aeruginosa PR280 harboring beta-lactamase KPC-5 by agar dilution method in presence of Tazobactam; assay type: functional
[29] = test system: Escherichia coli; assay: Antibacterial activity against Escherichia coli TOP10 harboring beta-lactamase KPC-5 by agar dilution method in presence of Tazobactam; assay type: functional

## C[C@@H](O)[C@H]1C(=O)N2C(C(=O)O)=C(SCCN=CN)C[C@H]12 [IMIPENEM ANHYDROUS]
[1]
  MIC: 4 µg/mL (≈ 13.4 µM)
[2]
  MIC: 0.12 µg/mL (≈ 0.401 µM)
[3]
  Stability: 116 nmol/min
[4]
  MIC: 4 µg/mL
[5]
  MIC: 16 µg/mL (≈ 53.4 µM)
[6]
  MIC: 0.12 µg/mL
[7]
  MIC: > 64 µg/mL
[8]
  MIC: 2 µg/mL (≈ 6.68 µM)
[9]
  MIC: > 32 µg/mL
[10]
  MIC: 0.12 µg/mL
[11]
  MIC: < 0.06 µg/mL
[12]
  MIC: > 64 µg/mL
[13]
  Stability: 412 nmol/min
[14]
  Stability: 69 nmol/min

## C[C@H]1[C@H](NC(=O)/C(=N\OC(C)(C)C(=O)O)c2csc(N)n2)C(=O)N1S(=O)(=O)O [AZTREONAM]
[1]
  MIC: > 128 µg/mL
[2]
  MIC: < 0.12 µg/mL
[5]
  MIC: > 128 µg/mL
[8]
  MIC: > 128 µg/mL
[9]
  MIC: > 64 µg/mL

## CO[C@@]1(NC(=O)Cc2cccs2)C(=O)N2C(C(=O)O)=C(COC(N)=O)CS[C@@H]21 [CEFOXITIN]
[1]
  MIC: 16 µg/mL (≈ 37.4 µM)
[2]
  MIC: 4 µg/mL (≈ 9.36 µM)
[5]
  MIC: 32 µg/mL (≈ 74.9 µM)
[8]
  MIC: 8 µg/mL (≈ 18.7 µM)
[9]
  MIC: > 64 µg/mL
[15]
  Ratio: 4
[16]
  Ratio: 2

## CC(C)(O/N=C(\C(=O)N[C@@H]1C(=O)N2C(C(=O)[O-])=C(C[n+]3ccccc3)CS[C@H]12)c1csc(N)n1)C(=O)O [CEFTAZIDIME]
[1]
  MIC: 128 µg/mL (≈ 234 µM)
[2]
  MIC: 0.12 µg/mL (≈ 0.22 µM)
[17]
  Stability: 3 nmol/min
[5]
  MIC: 32 µg/mL (≈ 58.5 µM)
[7]
  MIC: 128 µg/mL (≈ 234 µM)
[8]
  MIC: > 128 µg/mL
[9]
  MIC: > 64 µg/mL
[18]
  Stability: 6 nmol/min
[12]
  MIC: 64 µg/mL (≈ 117 µM)
[19]
  Stability: 7 nmol/min
[15]
  Ratio: 8

## C[C@@H](O)[C@H]1C(=O)N2C(C(=O)O)=C(S[C@@H]3CN[C@H](C(=O)N(C)C)C3)[C@H](C)[C@H]12 [MEROPENEM]
[2]
  MIC: < 0.06 µg/mL
[5]
  MIC: 8 µg/mL (≈ 20.9 µM)
[8]
  MIC: 1 µg/mL (≈ 2.61 µM)
[9]
  MIC: > 32 µg/mL

## CO/N=C(\C(=O)N[C@@H]1C(=O)N2C(C(=O)O)=C(COC(C)=O)CS[C@H]12)c1csc(N)n1 [CEFOTAXIME]
[1]
  MIC: 64 µg/mL (≈ 141 µM)
[2]
  MIC: < 0.06 µg/mL
[3]
  Stability: 368 nmol/min
[5]
  MIC: 64 µg/mL (≈ 141 µM)
[20]
  Stability: 20 nmol/min
[8]
  MIC: 64 µg/mL (≈ 141 µM)
[9]
  MIC: > 64 µg/mL
[21]
  Stability: 487 nmol/min
[13]
  Stability: 1310 nmol/min
[14]
  Stability: 172 nmol/min
[22]
  Stability: 48 nmol/min

## C[C@@H](O)[C@H]1C(=O)N2C(C(=O)O)=C(S[C@@H]3CN[C@H](C(=O)Nc4cccc(C(=O)O)c4)C3)[C@H](C)[C@H]12
[1]
  MIC: 8 µg/mL (≈ 16.8 µM)
[2]
  MIC: < 0.06 µg/mL
[5]
  MIC: 16 µg/mL (≈ 33.6 µM)
[8]
  MIC: 2 µg/mL (≈ 4.21 µM)
[9]
  MIC: > 16 µg/mL

## CC(=O)OCC1=C(C(=O)O)N2C(=O)[C@@H](NC(=O)Cc3cccs3)[C@H]2SC1 [CEPHALOTHIN]
[3]
  Stability: 50 nmol/min
[20]
  Stability: 6 nmol/min
[21]
  Stability: 25 nmol/min
[13]
  Stability: 65 nmol/min
[14]
  Stability: 53 nmol/min
[22]
  Stability: 7 nmol/min

## CO/N=C(\C(=O)N[C@@H]1C(=O)N2C(C(=O)[O-])=C(C[N+]3(C)CCCC3)CS[C@H]12)c1csc(N)n1
[2]
  MIC: < 0.06 µg/mL
[5]
  MIC: 16 µg/mL (≈ 33.3 µM)
[8]
  MIC: 8 µg/mL (≈ 16.6 µM)
[9]
  MIC: 64 µg/mL (≈ 133 µM)

## CCN1CCN(C(=O)N[C@@H](C(=O)N[C@@H]2C(=O)N3[C@@H]2SC(C)(C)[C@@H]3C(=O)O)c2ccccc2)C(=O)C1=O [PIPERACILLIN]
[23]
  MIC: 1 µg/mL
[24]
  MIC: > 256 µg/mL
[25]
  MIC: 128 µg/mL
[26]
  MIC: > 256 µg/mL
[27]
  MIC: > 64 µg/mL
[28]
  MIC: 128 µg/mL
[29]
  MIC: > 256 µg/mL
